Series [1] has as its system AH13r tumor cells. The experiment in a line: Hoechst 33258/propidium iodide (Hopi) double coloration for apoptosis. In kind it is cell-based, rat. Particulars: cytostatic. The text has this: The indication that the reduction in cell number is based on apoptosis, was detected by means of Hoechst 33258/propidium iodide (Hopi) double coloration.
Series [2] is described as follows: Plasma concentrations of BVDU, BVU and GEM in patients of the dose finding study (HPLC). The series is classed as in vivo, human. How it is done: Dose finding study: 22 Patients with advanced pancreatic adenocarcinoma were eligible for treatment in this single arm study. The mean age was 60 years and 73% of patients were males. One patient without progressive disease was excluded from the study for withdrawal of consent after the first cycle. Of the 21 patients left, 15 were in stage IV and 6 in stage III. BVDU was administered in a combination with GEM. On day 1, on day 8 and on day 15 of each 28-day cycle, BVDU was given together with GEM. On days 2-4, on days 8-11, and on days 15-18 of a 28-day cycle, BVDU was given alone in the recovery phase.
The starting dose of BVDU was 4×125 mg/day (total dose of 6,000 mg per treatment cycle) together with a fixed dose of GEM (1,000 mg/M^2). Subsequent total doses of BVDU per cycle were 7,500 mg, 9,000 mg, 10,500 mg, and 12,000 mg again in four patients per cohort. Dosage levels were administered as follows: First dose level: The starting dose of BVDU was 4×125 mg daily given at approximately 08:00 a.m. (1×125 mg BVDU), 12:00 a.m. (1×125 mg BVDU), 04:00 p.m. (1×125 mg BVDU), and 08:00 p.m. (1×125 mg BVDU). These doses were administered on days 1 to 4, days 8 to 11 and days 15 to 18; Second dose level: 1×250 mg+3×125 mg daily; Third dose level. 2×250 mg+2×125 mg daily; Forth dose level: 3×250 mg+1×125 mg daily; and, Fifth dose level: 4×250 mg daily.
Approximately 1 hour after the 08:00 a.m. BVDU-administration on day 1, day 8 and day 15 of a cycle, the GEM infusion started and GEM was infused for 30 minutes.
Analysis of the concentrations of GEM and BVDU (BVDU) as well as analysis of the concentrations of BVU ((E)-5-(2-bromovinyl)uracil, degradation product of BVDU) in plasma samples: 0.5 ml of plasma spiked with about 0.5 μg of 4-Propyl-2-thiouracil (PTU) as internal standard was extracted with 2.5 ml of methanol-acetonitrile (v/v, 1:9) by vigorous mixing for about 1 min. After centrifugation the supernatant was transferred to a beaker and evaporated to dryness at 50° C. under a gentle stream of nitrogen. The residue was dissolved in 1 ml of the solution used as mobile phase by 10 min treatment in an ultrasonic bath. After centrifugation the clear supernatant was used for HPLC-analysis. The concentrations of GEM and BVDU were calculated using a calibration curve with the respective standard substances. The concentrations of BVU were calculated using the calibration curve of BVDU and the determined response factor. Limits of detection: BVDU 20 ng/ml plasma; GEM 30 ng/ml plasma. Limits of quantification: BVDU 60 ng/ml plasma; GEM 100 ng/ml plasma.
Pharmacokinetic Results BVDU: All measurements were performed within 9 hours. Therefore, only the first three intakes of BVDU-tablets were relevant in this context, and as consequence, in dose groups four and five the intake of tablets was identical. When the dose was doubled from 125 mg to 250 mg, the mean maximum BVDU concentration in plasma increased fivefold from 290 (±152) ng/ml to 1549 (±1058) ng/ml (FIG. 10).

For series [3], the system named is dimethybenzanthracene (DMBA) induced tumors. Description: Growth of DMBA-induced tumors in SD rats under DOX ± BVDU. The note with it: DOX 1 mg/kg. In kind it is in vivo, rat. How it is done: (§1) The reduction in toxic side effects of doxorubicin (DOX) was able to be shown in the test with rats (see Table 3). SD rats were treated with dimethybenzanthracene (DMBA). […] During the treatment and one day after each treatment, i.e. in the recovery phase, the animals obtained respectively 15 mg/kg BVDU. The recovery phase in vivo was 6× one day.

The nature of series [4]: Animal weight of DOX ± BVDU treated rats (toxic side effects). The series is classed as in vivo, rat. The procedure: DT-D inactivates ROS and thus protects cells from non-specific ROS and electrophilic attacks. […] DOX treatment alone leads to weight losses because of the toxic side effects. It is certain that only the side effects (possibly the cardiotoxicity characteristic of DOX) are reduced by BVDU but not the toxic effects on the tumor.
as §1

Series [5] relates to advanced pancreatic cancer. The note with it: pivotal study, Glimelius et al. 1996; cited from earlier work.
In series [6] the test system is pancreatic cancer. Particulars: pancreatic cancer patients; cited from earlier work.
[7] abbreviates: DMBA-induced tumors, BVDU 15 mg/kg, average of 5-8 rats.
The mark [8] stands for this setting: SD rats, DOX 1 mg/kg, BVDU 15 mg/kg, average of 5-8 rats.

On to `O=C1c2c(O)ccc(O)c2C(=O)c2c(NCCNCCO)ccc(NCCNCCO)c21` [MXA, mitoxantrone], for which the “Apoptosis (HOPI double coloration)” value in series [1] is listed as “initiate apoptosis”.

Regarding `O=c1[nH]cc(/C=C/Br)c(=O)[nH]1` [BVU, (E)-5-(2-bromovinyl)uracil], the “Mean maximum BVU concentration” value in series [2] (lower end of the BVDU dose range ("from")) is listed as 1525 (±1012) ng/ml; in series [2] (upper end of the BVDU dose range ("to")) it was 4637 (±1353) ng/ml.

On to `CO[C@@]12[C@H](COC(N)=O)C3=C(C(=O)C(C)=C(N)C3=O)N1C[C@@H]1N[C@@H]12` [MMC, mitomycin C], for which the “Apoptosis (HOPI double coloration)” value in series [1] is listed as “initiate apoptosis”.

Consider `COc1cccc2c1C(=O)c1c(O)c3c(c(O)c1C2=O)C[C@@](O)(C(=O)CO)C[C@@H]3O[C@H]1C[C@H](N)[C@H](O)[C@H](C)O1` [DOX, doxorubicin], for which, in series [3] (setting [7]), the “Relative tumor size Day 1” value is 1 and the “Relative tumor size Day 16” value was found to be 1.5. For the same compound, the “Growth of DMBA-induced tumors” value in series [3] is “inhibited in their growth”. Further, in series [4] (setting [8]), the “Relative animal weight Day 1” value was 0 and the “Relative animal weight Day 16” value is reported as −7%. Besides, in series [4] (rat, in vivo), the “Animal weight change as index of toxic side effects” value is “weight losses”. Also, the “Apoptosis (HOPI double coloration)” value in series [1] is reported as “initiate apoptosis”.

For the compound `Nc1ccn([C@@H]2O[C@H](CO)[C@@H](O)C2(F)F)c(=O)n1` [GEM, gemcitabine], the “GEM maximum values with increase of the BVDU dose” value in series [2] (BVDU 125 vs 250 mg, large variability between individual patients) is on record as “appear to rise”. Also, the “GEM detectability in plasma” value in series [2] (at the second BVDU intake, 4 hours later) was “not detectable any more”. For the same compound, the Median survival entry in series [5] is “less than 6 months”. In series [6], the Diarrhea is on record as 2%, the One-year survival is listed as 17%, the Overall survival is listed as 5.9 months and the Skin rash is listed as 1%. The Time to progression in series [6] is recorded as 3.55 months.

Source of the values: US20090068286A1, “METHOD OF TREATING CANCER BY ADMINISTRATION OF 5-SUBSTITUTED NUCLEOSIDES” (RESprotect, GmbH, priority 2007, published 2009).
